Assay results reported in patent publication US20250257086A1, “EGFR DEGRADATION AGENT” (Beijing Tide Pharmaceutical Co., Ltd., priority 2022, published 2025).

Molecular target: Ba/F3 (EGFR^L858R/T790M/C797S) cells (Homo sapiens, UniProt P00533, T790M/C797S/L858R, cells depend on it)
Assay: Antiproliferative activity on Ba/F3 (EGFR L858R/T790M/C797S) cells (CTG)
Type: cell-based
Conditions: 72h incubation, CTG luminescence, read-out: IC50 (nM), antiproliferative activity
Procedure: 30 nL of the compound dilution was added to a 384-well plate by Echo (Labcyte, Echo550).
The percent inhibition rate (% inhibition) was calculated by the following formula
[formula] • LUMcmpd: Luminescence value of assay compound. • LUMpositive: Average LUM value of positive drug with a concentration of 10 μM. • LUMvehicle: Average LUM value of negative control group without drug treatment.
The nonlinear regression curve (dose response-variable slope) between the value of inhibition rate (%) and the logarithm of compound concentration was fitted with graphpad prism 8.0, the effect dose curve of compound was drawn, and the IC50 value was calculated.
Y=Bottom+(Top−Bottom)/(1+10^((Log IC50−X)*HillSlope)) • X-axis: logarithm of compound concentration; Y axis: inhibition rate (% inhibition).

Ba/F3 (EGFR^L858R/T790M/C797S) cells, sequence (P00533 whole entry T790M/C797S/L858R): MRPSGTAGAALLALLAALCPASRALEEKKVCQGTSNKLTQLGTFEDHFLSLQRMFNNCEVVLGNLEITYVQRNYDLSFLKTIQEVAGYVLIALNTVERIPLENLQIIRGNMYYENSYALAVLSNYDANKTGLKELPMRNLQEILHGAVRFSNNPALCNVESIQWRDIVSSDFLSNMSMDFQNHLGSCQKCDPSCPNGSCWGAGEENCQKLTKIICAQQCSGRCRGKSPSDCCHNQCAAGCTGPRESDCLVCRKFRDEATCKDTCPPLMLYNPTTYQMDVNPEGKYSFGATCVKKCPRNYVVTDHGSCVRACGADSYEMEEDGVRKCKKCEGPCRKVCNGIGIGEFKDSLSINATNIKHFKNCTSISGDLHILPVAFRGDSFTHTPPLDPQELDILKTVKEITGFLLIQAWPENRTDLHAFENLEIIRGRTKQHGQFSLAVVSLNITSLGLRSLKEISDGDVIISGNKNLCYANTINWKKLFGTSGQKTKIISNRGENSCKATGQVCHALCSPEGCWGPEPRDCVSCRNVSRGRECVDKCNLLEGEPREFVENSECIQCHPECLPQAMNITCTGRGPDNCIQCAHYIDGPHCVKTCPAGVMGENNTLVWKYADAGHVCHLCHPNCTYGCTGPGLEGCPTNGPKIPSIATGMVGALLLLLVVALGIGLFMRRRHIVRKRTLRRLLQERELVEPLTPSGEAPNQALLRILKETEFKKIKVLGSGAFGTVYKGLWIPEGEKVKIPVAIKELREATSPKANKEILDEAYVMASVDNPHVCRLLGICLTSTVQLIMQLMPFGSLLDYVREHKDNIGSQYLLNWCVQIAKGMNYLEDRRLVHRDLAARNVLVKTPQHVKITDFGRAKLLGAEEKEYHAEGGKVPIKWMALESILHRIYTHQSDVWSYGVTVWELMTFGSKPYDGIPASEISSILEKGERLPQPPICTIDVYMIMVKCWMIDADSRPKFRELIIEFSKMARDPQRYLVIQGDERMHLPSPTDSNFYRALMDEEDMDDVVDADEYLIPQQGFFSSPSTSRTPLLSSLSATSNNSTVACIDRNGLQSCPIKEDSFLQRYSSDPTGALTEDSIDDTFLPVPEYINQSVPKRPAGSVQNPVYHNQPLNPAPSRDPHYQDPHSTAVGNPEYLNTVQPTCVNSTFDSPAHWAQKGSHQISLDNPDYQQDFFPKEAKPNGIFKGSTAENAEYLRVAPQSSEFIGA

C=C(F)C(=O)Nc1cc(Nc2ncc(Cl)c(Nc3ccccc3P(C)(C)=O)n2)c(OC)cc1N1CCC(N2CCN(CCCCC#Cc3cccc4c3CN(C3CCC(=O)NC3=O)C4=O)CC2)CC1 (centres unmarked) [Compound D553, N-(5-((5-chloro-4-((2-(dimethylphosphoryl)phenyl)amino)pyrimidin-2-yl)amino)-2-(4-(4-(6-(2-(2,6-dioxopiperidin-3-yl)-1-oxoisoindolin-4-yl)hex-5-yn-1-yl)piperazin-1-yl)piperidin-1-yl)-4-methoxyphenyl)-2-fluoroacrylamide]
GI50: 49.5 nM

C=C(F)C(=O)Nc1cc(Nc2ncc(Cl)c(Nc3ccccc3P(C)(C)=O)n2)c(OC)cc1N1CCC(N2CCN(CCCCCC#Cc3cccc4c3CN(C3CCC(=O)NC3=O)C4=O)CC2)CC1 (centres unmarked) [Compound D554, N-(5-((5-chloro-4-((2-(dimethylphosphoryl)phenyl)amino)pyrimidin-2-yl)amino)-2-(4-(4-(7-(2-(2,6-dioxopiperidin-3-yl)-1-oxoisoindolin-4-yl)hept-6-yn-1-yl)piperazin-1-yl)piperidin-1-yl)-4-methoxyphenyl)-2-fluoroacrylamide]
GI50: 45.2 nM

COc1cc(N2CCC(N3CCN(CCCC#Cc4cccc5c4CN(C4CCC(=O)NC4=O)C5=O)CC3)CC2)c(NC(=O)/C=C/CN(C)C)cc1Nc1ncc(Cl)c(Nc2ccccc2P(C)(C)=O)n1 (centres unmarked) [Compound D555, N-(5-((5-chloro-4-((2-(dimethylphosphoryl)phenyl)amino)pyrimidin-2-yl)amino)-2-(4-(4-(5-(2-(2,6-dioxopiperidin-3-yl)-1-oxoisoindolin-4-yl)pent-4-yn-1-yl)piperazin-1-yl)piperidin-1-yl)-4-methoxyphenyl)-4-(dimethylamino)but-2-enamide]
GI50: 67.6 nM

COc1cc(N2CCC(N3CCN(CCCCC#Cc4cccc5c4CN(C4CCC(=O)NC4=O)C5=O)CC3)CC2)c(NC(=O)/C=C/CN(C)C)cc1Nc1ncc(Cl)c(Nc2ccccc2P(C)(C)=O)n1 (centres unmarked) [Compound D556, (E)-N-(5-((5-chloro-4-((2-(dimethylphosphoryl)phenyl)amino)pyrimidin-2-yl)amino)-2-(4-(4-(6-(2-(2,6-dioxopiperidin-3-yl)-1-oxoisoindolin-4-yl)hex-5-yn-1-yl)piperazin-1-yl)piperidin-1-yl)-4-dimethoxyphenyl)-4-(dimethylamino)but-2-enamide]
GI50: 582 nM

COc1cc(N2CCC(N3CCN(CCCCCC#Cc4cccc5c4CN(C4CCC(=O)NC4=O)C5=O)CC3)CC2)c(NC(=O)/C=C/CN(C)C)cc1Nc1ncc(Cl)c(Nc2ccccc2P(C)(C)=O)n1 (centres unmarked) [Compound D557, (E)-N-(5-((5-chloro-4-((2-(dimethylphosphoryl)phenyl)amino)pyrimidin-2-yl)amino)-2-(4-(4-(7-(2-(2,6-dioxopiperidin-3-yl)-1-oxoisoindolin-4-yl)hept-6-yn-1-yl)piperazin-1-yl)piperidin-1-yl)-4-dimethoxyphenyl)-4-(dimethylamino)but-2-enamide]
GI50: 383 nM

CC#CC(=O)Nc1cc(Nc2ncc(Cl)c(Nc3ccccc3P(C)(C)=O)n2)c(OC)cc1N1CCC(N2CCN(CCCCC#Cc3cccc4c3CN(C3CCC(=O)NC3=O)C4=O)CC2)CC1 (centres unmarked) [Compound D559, N-(5-((5-chloro-4-((2-(dimethylphosphoryl)phenyl)amino)pyrimidin-2-yl)amino)-2-(4-(4-(6-(2-(2,6-dioxopiperidin-3-yl)-1-oxoisoindolin-4-yl)hex-5-yn-1-yl)piperazin-1-yl)piperidin-1-yl)-4-methoxyphenyl)but-2-ynamide]
GI50: 50.4 nM

CC#CC(=O)Nc1cc(Nc2ncc(Cl)c(Nc3ccccc3P(C)(C)=O)n2)c(OC)cc1N1CCC(N2CCN(CCCCCC#Cc3cccc4c3CN(C3CCC(=O)NC3=O)C4=O)CC2)CC1 (centres unmarked) [Compound D560, N-(5-((5-chloro-4-((2-(dimethylphosphoryl)phenyl)amino)pyrimidin-2-yl)amino)-2-(4-(4-(7-(2-(2,6-dioxopiperidin-3-yl)-1-oxoisoindolin-4-yl)hept-6-yn-1-yl)piperazin-1-yl)piperidin-1-yl)-4-methoxyphenyl)but-2-ynamide]
GI50: 112 nM

COc1cc(N2CCC(N3CCN(CCCCCC#Cc4cccc5c4CN(C4CCC(=O)NC4=O)C5=O)CC3)CC2)c(NC(=O)/C=C/CN(C)C)cc1Nc1ncc(Br)c(Nc2ccccc2P(C)(C)=O)n1 (centres unmarked) [Compound D563, N-(5-((5-bromo-4-((2-(dimethylphosphoryl)phenyl)amino)pyrimidin-2-yl)amino)-2-(4-(4-(7-(2-(2,6-dioxopiperidin-3-yl)-1-oxoisoindolin-4-yl)hept-6-yn-1-yl)piperazin-1-yl)piperidin-1-yl)-4-dimethoxyphenyl)-4-(dimethylamino)but-2-enamide]
GI50: 306 nM

C=C(C)C(=O)Nc1cc(Nc2ncc(Cl)c(Nc3ccccc3P(C)(C)=O)n2)c(OC)cc1N1CCC(N2CCN(CCCC#Cc3cccc4c3CN(C3CCC(=O)NC3=O)C4=O)CC2)CC1 (centres unmarked) [Compound D579, N-(5-((5-chloro-4-((2-(dimethylphosphoryl)phenyl)amino)pyrimidin-2-yl)amino)-2-(4-(4-(5-(2-(2,6-dioxopiperidin-3-yl)-1-oxoisoindolin-4-yl)pent-4-yn-1-yl)piperazin-1-yl)piperidin-1-yl)-4-methoxyphenyl)methacrylamide]
GI50: 41.4 nM

COc1cc(N2CCC(N3CCN(CCCC#Cc4cccc5c4CN(C4CCC(=O)NC4=O)C5=O)CC3)CC2)c(NC(=O)/C=C/c2c[nH]cn2)cc1Nc1ncc(Cl)c(Nc2ccccc2P(C)(C)=O)n1 (centres unmarked) [Compound D581, N-(5-((5-chloro-4-((2-(dimethylphosphoryl)phenyl)amino)pyrimidin-2-yl)amino)-2-(4-(4-(5-(2-(2,6-dioxopiperidin-3-yl)-1-oxoisoindolin-4-yl)pent-4-yn-1-yl)piperazin-1-yl)piperidin-1-yl)-4-methoxyphenyl)-3-(1H-imidazol-4-yl)acrylamide]
GI50: 2600 nM

COc1cc(N2CCC(N3CCN(CCCC#Cc4cccc5c4CN(C4CCC(=O)NC4=O)C5=O)CC3)CC2)c(NC(=O)/C=C/c2cccs2)cc1Nc1ncc(Cl)c(Nc2ccccc2P(C)(C)=O)n1 (centres unmarked) [Compound D583, (E)-N-(5-((5-chloro-4-((2-(dimethylphosphoryl)phenyl)amino)pyrimidin-2-yl)amino)-2-(4-(4-(5-(2-(2,6-dioxopiperidin-3-yl)-1-oxoisoindolin-4-yl)pent-4-yn-1-yl)piperazin-1-yl)piperidin-1-yl)-4-methoxyphenyl)-3-(thiophen-2-yl)acrylamide]
GI50: 45.6 nM

COc1cc(N2CCC(N3CCN(CCCC#Cc4cccc5c4CN(C4CCC(=O)NC4=O)C5=O)CC3)CC2)c(NC(=O)/C=C/CN2CCCCC2)cc1Nc1ncc(Cl)c(Nc2ccccc2P(C)(C)=O)n1 (centres unmarked) [Compound D584, (E)-N-(5-((5-chloro-4-((2-(dimethylphosphoryl)phenyl)amino)pyrimidin-2-yl)amino)-2-(4-(4-(5-(2-(2,6-dioxopiperidin-3-yl)-1-oxoisoindolin-4-yl)pent-4-yn-1-yl)piperazin-1-yl)piperidin-1-yl)-4-methoxyphenyl)-4-(piperidin-1-yl)but-2-enamide]
GI50: 216 nM

COc1cc(N2CCC(N3CCN(CCCC#Cc4cccc5c4CN(C4CCC(=O)NC4=O)C5=O)CC3)CC2)c(NC(=O)/C=C/C(F)(F)F)cc1Nc1ncc(Cl)c(Nc2ccccc2P(C)(C)=O)n1 (centres unmarked) [Compound D596, N-(5-((5-chloro-4-((2-(dimethylphosphoryl)phenyl)amino)pyrimidin-2-yl)amino)-2-(4-(4-(5-(2-(2,6-dioxopiperidin-3-yl)-1-oxoisoindolin-4-yl)pent-4-yn-1-yl)piperazin-1-yl)piperidin-1-yl)-4-methoxyphenyl)-4,4,4-trifluorobut-2-enamide]
GI50: 31.7 nM

C=C(Cl)C(=O)Nc1cc(Nc2ncc(Cl)c(Nc3ccccc3P(C)(C)=O)n2)c(OC)cc1N1CCC(N2CCN(CCCC#Cc3cccc4c3CN(C3CCC(=O)NC3=O)C4=O)CC2)CC1 (centres unmarked) [Compound D597, 2-chloro-N-(5-((5-chloro-4-((2-(dimethylphosphoryl)phenyl)amino)pyrimidin-2-yl)amino)-2-(4-(4-(5-(2-(2,6-dioxopiperidin-3-yl)-1-oxoisoindolin-4-yl)pent-4-yn-1-yl)piperazin-1-yl)piperidin-1-yl)-4-methoxyphenyl)acrylamide]
GI50: 460 nM

C=CC(=O)Nc1cc(Nc2ncc(Cl)c(Nc3ccccc3P(C)(C)=O)n2)c(OC)cc1N1CCC(N2CCN(CCCCC#Cc3ccc4c(c3)CN(C3CCC(=O)NC3=O)C4=O)CC2)CC1 (centres unmarked) [Compound D601, N-(5-((5-chloro-4-((2-(dimethylphosphoryl)phenyl)amino)pyrimidin-2-yl)amino)-2-(4-(4-(6-(2-(2,6-dioxopiperidin-3-yl)-1-oxoisoindolin-5-yl)hex-5-yn-1-yl)piperazin-1-yl)piperidin-1-yl)-4-methoxyphenyl)acrylamide]
GI50: 144 nM

CC#CC(=O)Nc1cc(Nc2ncc(Cl)c(Nc3ccccc3P(C)(C)=O)n2)c(OC)cc1N1CCC(N2CCN(CCCCC#Cc3ccc4c(c3)CN(C3CCC(=O)NC3=O)C4=O)CC2)CC1 (centres unmarked) [Compound D602, N-(5-((5-chloro-4-((2-(dimethylphosphoryl)phenyl)amino)pyrimidin-2-yl)amino)-2-(4-(4-(6-(2-(2,6-dioxopiperidin-3-yl)-1-oxoisoindolin-5-yl)hex-5-yn-1-yl)piperazin-1-yl)piperidin-1-yl)-4-methoxyphenyl)but-2-ynamide]
GI50: 57.3 nM

COc1cc(N2CCC(N3CCN(CCCC#Cc4cccc5c4CN(C4CCC(=O)NC4=O)C5=O)CC3)CC2)c(NC(=O)/C=C/C(F)(F)F)cc1Nc1ncc(Br)c(Nc2ccccc2P(C)(C)=O)n1 (centres unmarked) [Compound D603, (E)-N-(5-((5-bromo-4-((2-(dimethylphosphoryl)phenyl)amino)pyrimidin-2-yl)amino)-2-(4-(4-(5-(2-(2,6-dioxopiperidin-3-yl)-1-oxoisoindolin-4-yl)pent-4-yn-1-yl)piperazin-1-yl)piperidin-1-yl)-4-methoxyphenyl)-4,4,4-trifluorobut-2-enamide]
GI50: 37.1 nM
